Reference: US12453708B2, “Aminonaphthoquinone compounds for treatment and/or prevention of fibrosis diseases” (CALGENT BIOTECHNOLOGY CO., LTD., priority 2015, dated 2025)

Tested on: thrombin-induced CTGF expression in WI-38 cells
Assay: thrombin-induced CTGF expression in WI-38 cells (Western blot)
Assay type: cell-based, human
Conditions: WI-38 lung fibroblasts, 0.3, 1, 3 or 10 μM for 30 min before and during 2 h thrombin (1 U/ml)
Experimental: FIGS. 3 (A) and (B) show the effect of L056 on thrombin-induced CTGF expression in WI-38 cells. WI-38 lung fibroblasts were incubated with different concentrations of L056 (0.3, 1, 3 or 10 μM) for 30 min before and during incubation for 2 h with thrombin (1 U/ml). […] (A), Western blot plot; (B), Quantitative assay of Western blot. WI-38 cells, a normal human embryonic lung fibroblast cell line, were obtained from American Type Culture Collection (Manassas, VA). Cells were grown in MEM nutrient mixture, containing 10% FCS, 2 mM L-glutamine, 0.1 mM NEAA, 1 mM sodium pyruvate, 50 U/ml penicillin G, and 100 µg/ml streptomycin, in a humidified 37° C. incubator with 5% CO2 Cells were used between passages 18 and 30 for all experiments. After reaching confluence, cells were seeded onto 6-cm dishes for immunoblotting. Western blot analyses were performed as described previously (Chen B C, Chang Y S, Kang J C, Hsu M J, Sheu J R, Chen T L, et al. Peptidoglycan induces nuclear factor-kappaB activation and cyclooxygenase-2 expression via Ras, Raf-1, and ERK in RAW 264.7 macrophages. J Biol Chem 2004; 279:20889-97). […] The immunoreactivity was detected using enhanced chemiluminescence (ECL) following the manufacturer's instructions. Quantitative data were obtained using a computing densitometer with scientific imaging systems (Kodak, Rochester, NY). […]

## O=C(Nc1ccncc1)c1ccc(CNC2=C(Cl)C(=O)c3ccccc3C2=O)cc1 [Example L056, 4-(((3-chloro-1,4-dioxo-1,4-dihydronaphthalen-2-yl)amino)methyl)-N-(pyridin-4-yl)benzamide]
  thrombin-induced CTGF production/expression: significantly inhibited
Listed as MPTOL0560
  thrombin-induced CTGF production/expression: inhibited
